From patent US20130324606A1, “Ester Derivatives of Bimatoprost Compositions and Methods” (ALLERGAN, INC., priority 2011, published 2013)

Experiments:
[1] = Formulation and stability studies; assay type: physicochemical; details: variations of Formulation A, 0.03% active, pH 4, 5, 6 and 7; 25, 40 and 60° C.; zero time and 80-days
Method: Stability over time of compounds disclosed herein was determined in formulation as a function of temperature and pH. Variations of Formulation A described herein were employed wherein the target concentration of active agent was 0.03%, and the pH was varied at pH 4, 5, 6 and 7. Temperatures of 25° C., 40° C. and 60° C. were maintained during the experiment. Samples were evaluated at zero time and 80-days.
Cmpds IVa, IIIb, and IVb for evaluated for stability.
FIGS. 1A-1B, 2A-2B, and 3A-3B depict histograms of relative concentrations of test compounds (arbitrary scale) at zero time or 80-days. FIG. 1A depicts a histogram of the stability profile of Cmpd IVa as a function of pH and temperature. FIG. 1B depicts a histogram of the formation of bimatoprost as a function of pH and temperature after 80-days for Cmpd IVa. FIG. 2A depicts a histogram of the stability profile of Cmpd IVb as a function of pH and temperature. FIG. 2B depicts a histogram of the formation of bimatoprost as a function of pH and temperature after 80-days for Cmpd IVb. FIG. 3A depicts a histogram of the stability profile of Cmpd IIIb as a function of pH and temperature. FIG. 3B depicts a histogram of the formation of bimatoprost as a function of pH and temperature after 80-days for Cmpd IIIb.

[2] = tested on: reconstructed human epidermis (RHE); test: In vitro dermal irritation screening in reconstructed human epidermis; assay type: cell-based; details: concentration 0.03%, Formulation A vehicle
Method: In vitro irritation screening assays were conducted for compounds described herein. Test system was the reconstructed human epidermis (RHE), as known in the art. Single dosing was employed, and endpoints were evaluated as a function of time up to 24-hrs. Endpoints were tissue viability and IL-1α release.
Test compounds included Cmpds IVa (0.03%), IIIb (0.03%), IVb (0.03%), bimatoprost (0.03%), minoxidil (5%, foam), and minoxidil (5%, solution). Administration of Cmpds IVa, IIIb, IVb and bimatoprost employed the vehicle of Formulation A. See Table 1 above. Administration of minoxidil employed minoxidil vehicle with formulation 20% H2O, 50% propylene glycol, and 30% ethanol.

[3] = Dermal tolerability in rats; assay type: in vivo; details: female rats
Method: Female rats were administered either vehicle or one of Cmpds IVa, IIIb, or IVb daily for 8 days. The administered dose was 3 mg/kg/day, at a concentration of 3 mg/mL. Observed data were body weight, viability, food consumption, and dermal observation (skin reaction grading), as known in the art. The vehicle was Formulation A. See Table 1 above.

[4] = microAmes mutagenesis screen; assay type: cell-based; details: with or without metabolic activation
Description: Cmpds IVa, IIIb, and IVb were subjected to the microAmes screen, as known in the art.

[5] = Pharmacokinetic assessment of mouse hair regrowth model; assay type: in vivo; details: mice, 0.03% dermal daily ~60 uL, all measured time points, LC/MS-MS
Method: Female C57BL/6J mice (n=2) were assayed per time point per treatment group. Treatment groups: (1) vehicle; (2) 0.03% Cmpd IVa; (3) 0.03% Cmpd IIIb; (4) 0.03% Cmpd IVb; (5) 0.03% bimatoprost. Treatment dosing: dermal daily application of ˜60 uL test compound solution. Blood and skin pharmacokinetic time points were obtained at day 1 (1, 4, 8 and 24-hrs post-dose); day 2 (24-hrs post-dose); day 14 (24-hrs post-dose); and day 42 (28 days post day 14 dose). Bioanalysis employed LC/MS-MS.

[6] = In vitro human skin penetration (Franz diffusion chamber); assay type: in vitro ADME
Description: Test material: Dermatomed ex vivo human cadaver posterior trunk skin on 1.0 cm^2 Franz diffusion chamber as known in the art. Test size: 3 skin donors (obtained from New York Firefighters Skin Bank), 3 replicates per donor per formulation. Test formulations: 0.03% active agent (Cmpd IVa, Cmpd IIIb, Cmpd IVb) in Formulation A; control formulation: bimatoprost at 0.03% in Formulation A. Dosing regimen: receptor fluid at 2, 4, 24, and 48 hrs; SC/epidermis and dermis at 48 hrs. Sample analysis: LC/MS-MS to detect bimatoprost and Cmpds IVa, IIIb and IVb.

[7] = Partitioning in artificial sebum; assay type: physicochemical
Method: Compounds bimatoprost, Cmpd IVa, and Cmpd IIIb were added to aqueous solution (1 mL, 2-20 ug/mL), with and without 1-20 mg artificial sebum. Samples were shaken for 16 hr at 37° C. Samples were then centrifuged (8000 RPM) for 15 min at room temperature, prior to collection of the aqueous solution. Samples were analyzed for concentration of compound without artificial sebum (i.e., Co) and with artificial sebum (i.e., Ci) by mass spectroscopy. Artificial sebum and water partition coefficient (Ksebum) was expressed as the concentration of drug in 1 g of artificial sebum divided by the concentration of drug in 1 g of aqueous solution, and was calculated as Ksebum=(Co−Ci)Waqueous/(Ci×Wsebum) (Eqn. 1), where W represents weight.
Artificial sebum was prepared as follows: 15% (w/w) squalene, 15% spermaceti, 10% coconut oil, 1.5% oleic acid, 5% palmitic acid, 2.4% cholesterol oleate, 10% paraffin wax, 10% olive oil, 25% cottonseed oil, 5% palmitoleic acid, 1.2% cholesterol. The melting point of the semi-liquid was 37° C.

[8] = dermal 3 mg/kg/day daily for 8 days, Formulation A

Structure (SMILES): CCNC(=O)CCC/C=C\C[C@@H]1[C@@H](/C=C/[C@H](CCc2ccccc2)OC(C)=O)[C@H](O)C[C@@H]1O [Cmpd IVa, 15-acetyl-bimatoprost]
- stability in formulation [1]: stable in formulation
- potential for irritation of the human skin [2]: no indication of potential for irritation
- change in food consumption and body weight gain (in words) ([3]; 3 mg/kg/day daily for 8 days): no significant change in food consumption or body weight gain
- dermal observation: signs of irritation ([3]; 3 mg/kg/day, days 2-4): minimal and transient signs of irritation
- Body Weight Gain (g) Mean ± SD [3, 8]: 9.0 ± 3.0 g
- Food Consumption (g) Mean ± SD [3, 8]: 21.14 ± 1.08 g
- mutagenicity in microAmes screen [4]: not mutagenic
- level in the systemic circulation [5]: most undetectable
- skin penetration (cumulative amount in receptor solution) relative to bimatoprost ([6]; 0.03% in Formulation A, FIG. 13A): significantly greater than for bimatoprost
- penetration flux relative to bimatoprost ([6]; 0.03% in Formulation A, FIG. 13B): greater than that for bimatoprost
- Percentage Dose Applied, Receptor Chamber Solution, Prodrug ([6]; 0.03% in Formulation A, Franz chamber, dosed compound): 4.3 Percentage Dose Applied
- Percentage Dose Applied, Upper ⅓ Dermis, Prodrug ([6]; 0.03% in Formulation A, dermis at 48 hrs, dosed compound): 3.8 Percentage Dose Applied
- conversion to bimatoprost in the SC/Epi/Dermis layers ([6]; FIG. 15A): converted to bimatoprost
- amount of active agent in the upper third of the dermis relative to bimatoprost ([6]; FIG. 15B): less than observed for bimatoprost
- phase in which the majority of compound remains ([7]; artificial sebum / aqueous solution): remain in the aqueous phase
- Ave. Ksebum (artificial sebum and water partition coefficient) ([7]; n = 4, 16 hr at 37° C.): 5.1
